Test results: patent US8546376B2, “Pharmaceutical compounds” (Almac Discovery Limited, priority 2009, dated 2013)
Where a name gives a salt, the structure may show the parent alone.

Columns and labels:
[1] = target: T1, AKT2 (Homo sapiens, UniProt P31751); assay: AKT Kinase Assay (IMAP fluorescent polarisation) vs AKT2; assay type: biochemical; conditions: activated AKT2, FAM Crosstide substrate
T1 construct: purchased SignalChem
Method in brief: (§1)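 IC50 values came from non-linear regression of % inhibition relative to vehicle, measured by IMAP fluorescence polarisation (485/528 nm) after a 1 h room-temperature reaction of FAM-Crosstide and ATP. Each activated isoform was first exposed to compound for 45 min across fourteen half-log doses.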

[2] = target: T2, AKT1 (Homo sapiens, UniProt P31749); assay: AKT Kinase Assay (IMAP fluorescent polarisation) vs AKT1; assay type: biochemical; conditions: activated AKT1, FAM Crosstide substrate
T2 construct: purchased SignalChem
T2 sequence (P31749 whole entry): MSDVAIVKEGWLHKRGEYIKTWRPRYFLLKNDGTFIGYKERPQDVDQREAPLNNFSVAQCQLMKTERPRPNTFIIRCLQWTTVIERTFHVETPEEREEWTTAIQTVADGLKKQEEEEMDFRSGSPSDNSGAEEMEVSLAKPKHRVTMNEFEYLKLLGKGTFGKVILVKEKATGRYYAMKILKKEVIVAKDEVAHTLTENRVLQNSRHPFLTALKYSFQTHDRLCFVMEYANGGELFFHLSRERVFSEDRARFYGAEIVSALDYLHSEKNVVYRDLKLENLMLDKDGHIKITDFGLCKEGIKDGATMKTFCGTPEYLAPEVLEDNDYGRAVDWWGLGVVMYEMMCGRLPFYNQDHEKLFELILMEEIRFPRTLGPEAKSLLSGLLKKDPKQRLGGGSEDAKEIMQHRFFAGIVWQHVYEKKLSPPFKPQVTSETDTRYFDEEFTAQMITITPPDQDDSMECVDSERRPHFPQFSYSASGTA
Method in brief: as §1

[3] = system: PC3 and/or LnCaP cell lines; assay: In vitro cell proliferation assay (Cell Titre Glo); assay type: cell-based; conditions: Homo sapiens, 72 hours, read-out: inhibition of proliferation IC50
Method: Testing of the compounds was also performed using in vitro cell proliferation assays:
Cell Titre Glo (Promega) is a highly sensitive homogeneous reagent used to determine the viability of cells. The reagent uses a stable form of luciferase to measure ATP as an output of viability. The luminescent values generated in the assay are directly proportional to the number of viable cells in your assay.
The following materials were used: White, clear bottomed 96 well assay plates (Costar); Cell titre Glo reagents; LnCaP (ECACC) cells grown in RPMI medium (Invitrogen) supplemented with 10 mM HEPES (Invitrogen), 1 mM Sodium pyruvate (Invitrogen), 2 mM L-Glutamine (Invitrogen) and 10% Foetal calf serum (Invitrogen); PC3 (ECACC) cells grown in RPMI medium supplemented with 10% Foetal calf serum (Invitrogen); Trypsin (Invitrogen); PBS (Invitrogen); Biotek Synergy 4 Hybrid Plate reader; 96 well plate shaker (Stuart SSL5); Eppendorf 5414 desk-top centrifuge; Beckman Coulter cell counter Z1 single threshold system.
Prostate cell lines, PC3 and LnCaP, were washed, detached and re-suspended in their respective fresh media. The cells were pelleted by centrifugation (Eppendorf 5414) and spent supernatant discarded. The cells were re-suspended by vortex mixing, counted and seeded into clear bottom white 96 well plates at a density of 5000 cells per well. The cells were incubated (Sanyo) overnight at 37° C. ([…]), and next day treated with increasing concentrations of test compound formulated in fresh medium. The plates were returned to the incubator for 72 hours. […]
The cell viability post compound treatment was determined by the luminescent intensity emitted from the drug treated wells in the plate. In brief, the assay plate was placed in the Biotex Synergy 4 Hybrid plate reader and the luminescence read in each well. The compound treated wells were compared to vehicle treated wells and the % inhibition of cell viability calculated.
The data was analysed using GraphPad Prism, with IC50 values generated using non-linear regression of the data set.

[4] = target: T3, AKT3 (Homo sapiens, UniProt Q9Y243); assay: AKT Kinase Assay (IMAP fluorescent polarisation) vs AKT3; assay type: biochemical; conditions: activated AKT3, FAM Crosstide substrate
T3 construct: purchased SignalChem
T3 sequence (Q9Y243 whole entry): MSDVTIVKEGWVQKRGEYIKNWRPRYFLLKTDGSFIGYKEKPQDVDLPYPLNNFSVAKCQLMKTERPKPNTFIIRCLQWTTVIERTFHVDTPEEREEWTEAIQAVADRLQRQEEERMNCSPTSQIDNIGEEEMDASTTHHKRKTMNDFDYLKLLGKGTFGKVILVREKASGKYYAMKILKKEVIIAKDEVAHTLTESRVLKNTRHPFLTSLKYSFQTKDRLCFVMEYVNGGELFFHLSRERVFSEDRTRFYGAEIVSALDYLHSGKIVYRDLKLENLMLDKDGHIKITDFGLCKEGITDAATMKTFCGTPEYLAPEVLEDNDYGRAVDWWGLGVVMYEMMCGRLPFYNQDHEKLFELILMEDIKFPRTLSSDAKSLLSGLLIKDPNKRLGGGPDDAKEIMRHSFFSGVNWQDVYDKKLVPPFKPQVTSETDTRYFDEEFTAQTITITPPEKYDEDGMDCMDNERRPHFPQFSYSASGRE
Method in brief: as §1

[5] = system: AKT phosphorylation; assay: Phosphorylation status of AKT/PI3K pathway members via western blotting; assay type: cell-based; conditions: for 48 h at 10 μM
Excerpt: Analysis of Compound Effects on AKT Signalling Pathways
Phosphorylation status of various members of the AKT/PI3K pathway were investigated via western blotting.
Materials Required for this Assay: 20× Running buffer (Invitrogen); Rainbow marker ladder (GE Healthcare); Reducing buffer (Invitrogen); 20× Transfer buffer (Invitrogen); 4-12% Bis-Tris Gels (Invitrogen); Filter paper (Whatman); Nitrocellulose (Amersham); ECL plus detection reagents (GE Healthcare); Radiographic film (Kodak); Biorad Protein determination reagent (Biorad); AKT pathway signalling antibodies (Cell Signalling)
LnCaP and PC3 cell lines were washed, detached and re-suspended in fresh medium. They were seeded in 90 mm^2 dishes and incubated overnight ([…]/5% CO2) to allow adherence. […]
The medium was removed and the cells placed on ice and washed in PBS. […] The resultant supernatant was assayed for protein content using the Bradford method (Biorad) and equal quantities of protein calculated and heated in sample reducing buffer to 95° C. for ten minutes. […]
The membranes were used to determine difference in total AKT, pSer473 AKT, pGSK3β and total GSK3β (all sourced from Cell Signalling). […] The membranes were washed three times in PBS and incubated with the respective secondary antibodies (Sigma Aldrich) for two hours and the proteins were detected using ECL plus detection reagents (GE Healthcare).

T1 sequence (P31751 whole entry): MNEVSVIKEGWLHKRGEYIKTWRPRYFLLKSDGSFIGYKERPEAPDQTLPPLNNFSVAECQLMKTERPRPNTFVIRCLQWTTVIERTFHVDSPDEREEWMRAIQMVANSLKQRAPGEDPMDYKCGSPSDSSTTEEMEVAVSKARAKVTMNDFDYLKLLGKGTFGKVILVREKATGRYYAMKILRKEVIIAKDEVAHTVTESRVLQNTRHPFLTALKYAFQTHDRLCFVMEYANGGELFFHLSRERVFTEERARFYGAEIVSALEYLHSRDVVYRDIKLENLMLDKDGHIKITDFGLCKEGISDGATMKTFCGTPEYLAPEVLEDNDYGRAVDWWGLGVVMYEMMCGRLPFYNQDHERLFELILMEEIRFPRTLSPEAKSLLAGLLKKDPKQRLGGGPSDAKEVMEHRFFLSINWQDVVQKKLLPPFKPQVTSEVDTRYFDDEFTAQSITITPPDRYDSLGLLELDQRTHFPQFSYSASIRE

IC50 [1] [nM]	IC50 [2] [nM]	IC50 [3] [nM]	IC50 [4] [nM]	SMILES	inhibition of AKT phosphorylation [5]
≤ 1000	≤ 1000	< 10000	≤ 1000	NC1(c2ccc(-c3c(-c4ccccc4)oc4c(cc(Cl)c5nc[nH]c54)c3=O)cc2)CCC1 [Example 44, 7-[4-(1-Amino-cyclobutyl)-phenyl]-4-chloro-8-phenyl-1H-chromeno[7,8-d]imidazol-6-one]	–
≤ 1000	1000 to 10000	–	> 10000	CN1CCN(c2ccc3oc(-c4ccccc4)c(-c4ccc(C5(N)CCC5)cc4)c(=O)c3c2)CC1 [Example 20, 3-[4-(1-Amino-cyclobutyl)-phenyl]-6-(4-methyl-piperazin-1-yl)-2-phenyl-chromen-4-one]	inhibition of AKT phosphorylation
≤ 1000	1000 to 10000	< 10000	> 10000	COc1ccc2c(=O)c(-c3ccc(C4(N)CCC4)cc3)c(-c3ccccc3)oc2c1OC [Example 4, 3-[4-(1-Amino-cyclobutyl)-phenyl]-7,8-dimethoxy-2-phenyl-chromen-4-one]	–
≤ 1000	≤ 1000	< 10000	1000 to 10000	Cl.NC1(c2ccc(-c3c(-c4ccccc4)oc4c(=O)[nH]ccc4c3=O)cc2)CCC1 [Example 40, 3-[4-(1-Amino-cyclobutyl)-phenyl]-2-phenyl-7H-pyrano[2,3-c]pyridine-4,8-dione hydrochloride]	inhibition of AKT phosphorylation
≤ 1000	≤ 1000	–	> 10000	N#Cc1cccc(-c2nccc3c(=O)c(-c4ccc(C5(N)CCC5)cc4)c(-c4ccccc4)oc23)c1 [Example 122]	–
1000 to 10000	≤ 1000	–	> 10000	NC1(c2ccc(-c3c(-c4ccccc4)oc4c(N5CCOCC5)cccc4c3=O)cc2)CCC1 [Example 72, 3-[4-(1-Amino-cyclobutyl)-phenyl]-8-morpholin-4-yl-2-phenyl-chromen-4-one hydrochloride]	–
